Test results reported in patent publication US20240226110A1, “5-HT2C AGONIST FOR USE IN TREATING CONDITIONS ASSOCIATED WITH CENTRAL HYPOVENTILATION” (APNIMED, INC. (DELAWARE), priority 2021, published 2024).

Legend:
[1] = molecular target: T1, serotonin (5-HT) 2C receptor (Rattus norvegicus, UniProt P08909); settings: anesthetized rats; cited from earlier work
T1 construct: increased genioglossus activity and reduced upper airway collapsibility in anesthetized rats; from tissue; host or cells: anesthetized rats (in vivo; hypoglossal motor nucleus / brainstem)
T1 sequence (P08909 33-460): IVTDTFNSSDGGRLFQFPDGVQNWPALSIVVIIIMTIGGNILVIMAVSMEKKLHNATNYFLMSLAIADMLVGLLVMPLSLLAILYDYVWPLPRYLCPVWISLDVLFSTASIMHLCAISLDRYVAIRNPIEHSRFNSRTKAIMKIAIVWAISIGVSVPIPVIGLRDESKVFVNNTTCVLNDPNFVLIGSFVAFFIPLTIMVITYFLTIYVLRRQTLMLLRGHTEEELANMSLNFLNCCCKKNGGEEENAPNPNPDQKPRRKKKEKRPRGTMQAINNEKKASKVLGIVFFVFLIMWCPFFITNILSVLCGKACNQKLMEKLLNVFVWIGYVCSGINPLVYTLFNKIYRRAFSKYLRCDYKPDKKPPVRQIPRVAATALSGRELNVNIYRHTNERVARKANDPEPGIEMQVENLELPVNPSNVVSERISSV

OSA patients = assay: Crossover pilot trial, lorcaserin 15 mg or placebo before bedtime for one night; polysomnography with pneumotach and oronasal mask; assay type: in vivo, human; settings: single patient, hypopneas present in both conditions
Protocol: In a crossover pilot trial including 6 OSA patients, the patients were administered in random order lorcaserin 15 mg or placebo before bedtime for one night.
Patients were outfitted with the usual polysomnography equipment plus a pneumotach and oronasal mask for accurate ventilation measurements. The effect of lorcaserin on several ventilatory parameters reflecting the upper airway collapsibility and muscle activity were measured using validated algorithms.

Structure (SMILES)	genioglossus activity [1]	upper airway collapsibility [1]	ventilation during NREM sleep of a patient, lorcaserin night vs placebo (FIG. 2) (OSA patients)
COc1cc(CC(C)N)c(OC)cc1I (stereo not drawn) [DOI, 2,5-dimethoxy-4-iodoaminophentamine]	increased	reduced	–
C[C@H]1CNCCc2ccc(Cl)cc21 [lorcaserin, (1R)-8-chloro-1-methyl-2,3,4,5-tetrahydro-1H-3-benzazepine]	–	–	increased substantially
